What was measured:
HNMT = HNMT (Homo sapiens, UniProt P50135); assay: HNMT specificity screen; format: biochemical
NSP10–14 ExoN = NSP10–14 ExoN (Severe acute respiratory syndrome coronavirus 2, UniProt P0DTD1); format: biochemical, SARS-CoV-2
RNase H = RNase H (Escherichia coli, UniProt P0A7Y4)
NSP14 ExoN = details: cited from earlier work

Sequence of RNase H (P0A7Y4 whole entry): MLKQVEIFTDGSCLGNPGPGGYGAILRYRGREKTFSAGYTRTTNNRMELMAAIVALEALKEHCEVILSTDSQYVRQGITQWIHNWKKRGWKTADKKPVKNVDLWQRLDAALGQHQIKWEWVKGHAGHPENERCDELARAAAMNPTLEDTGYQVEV
Sequence of HNMT (P50135 whole entry): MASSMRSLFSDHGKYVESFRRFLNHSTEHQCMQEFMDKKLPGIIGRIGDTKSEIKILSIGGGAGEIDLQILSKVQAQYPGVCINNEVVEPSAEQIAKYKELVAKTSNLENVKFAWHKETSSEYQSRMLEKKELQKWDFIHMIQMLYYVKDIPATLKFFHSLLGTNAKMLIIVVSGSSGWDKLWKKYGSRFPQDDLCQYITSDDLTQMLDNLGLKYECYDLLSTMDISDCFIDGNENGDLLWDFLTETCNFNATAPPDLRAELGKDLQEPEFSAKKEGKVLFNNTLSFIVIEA

Row | SMILES | activity against HNMT (off-target) (HNMT) | effect on VMAX, ExoN RNA substrate (NSP10–14 ExoN) | mechanism of inhibition with respect to ExoN RNA substrate (NSP10–14 ExoN) | change in KM for ExoN RNA substrate (NSP10–14 ExoN; concentrations below 2 μM of compound) | activity against RNase H (off-target) (RNase H) | potency difference between NSP14 ExoN and RNase H (RNase H) | inhibition of NSP14 ExoN activity, affinity (NSP14 ExoN)
1 | CC(=O)N1CCN(c2ccc(C(=O)N3CCN(Cc4ccccc4)CC3)nn2)C(=O)C1 [NCGC00537446] | some activity | more clearly influenced | noncompetitive | no significant change | some activity | greater than 10 fold | 
2 | O=C1C=C2C(=CCOC2O)O1 (stereo not shown) [Patulin] |  |  |  |  |  |  | micromolar affinity

From article PMC12965331 (Biochemistry, 2025)
